According to patent US20130274237A1, “COMPOSITION INCLUDING CHLOROPHYLL A AS AN ACTIVE INGREDIENT FOR PREVENTING AND TREATING TH2-MEDIATED IMMUNOLOGICAL DISEASES” (GWANGJU INSTITUTE OF SCIENCE AND TECHNOLOGY, priority 2009, published 2013):
“And” between values parts separate entries of the source, which are not always exact repeats. Identical values can stand only once.

Legend:
[1] = Body weight of atopy-induced NC/Nga mice; details: DNCB atopy-induced NC/Nga mice
Excerpt: 20 fourteen-week old female NC/Nga mice (Central Lab. Animal Inc., Korea) with a body weight of about 20 g were used. The experimental animals were allowed to adapt for 7 days in the animal rooms before the experiment, and observed for general symptoms.
A test solution prepared by dissolving a mixture consisting of acetone and olive oil in 3:1 ratio in dinitrochlorobenzene (DNCB) to a concentration of about 1% to about 0.2% was coated on the skin of the NC/Nga mice to induce atopic dermatitis.
Body weight was measured twice from the time when the test material was administered.

[2] = tested on: degranulation of mast cells; test: Histology: mast cells per degranulation level; assay type: in vivo, NC/Nga mice; details: for No. of Mast Cells per value of degranulation level 1 / No. of Mast Cells per value of degranulation level 1, mean: intermediate level of degranulation; for No. of Mast Cells per value of degranulation level 1 / No. of Mast Cells per value of degranulation level 0 / No. of Mast Cells per value of degranulation level 2: individual mouse; for No. of Mast Cells per value of degranulation level 1, mean / No. of Mast Cells per value of degranulation level 0, mean / No. of Mast Cells per value of degranulation level 2, mean: mean of 5 mice; for No. of Mast Cells per value of degranulation level 0 / No. of Mast Cells per value of degranulation level 0, mean: normal degranulation; for No. of Mast Cells per value of degranulation level 2 / No. of Mast Cells per value of degranulation level 2, mean: serious level of degranulation
Procedure: (§1) 4-7) Histology (H & E, Toluidine Blue Stain) • d. Skin tissues were fixed in 10% formalin for at least 24 hours, prepared into paraffin blocks, cut into pieces in the size of 4 μm, dyed with hematoxylin & eosin (Sigma, USA), and then dyed again with toluidine blue (Sigma, USA) for more accurate identification of inflammatory cells.

mast cells = test: Histology: number of mast cells in skin (toluidine blue, x200); assay type: in vivo, NC/Nga mice; details: for Average No. of Mast Cells × 200: individual mouse; for Average No. of Mast Cells × 200, Group Mean: mean of 5 mice
Procedure: as §1

[3] = tested on: dorsal skin of NC/Nga mice induced with atopic dermatitis using DNCB; test: Dorsal skin inflammation of mice induced with atopic dermatitis (clinical images); assay type: in vivo; details: 15th week, versus positive control, in words
Excerpt: 4-6) Dorsal Skin Inflammation of a Mouse Induced with Atopic Dermatitis • c. The body weight of a mouse was not increased due to DNCB solution used for inducing atopy, however, there was no decrease in body weight by the administration of chlorophyll a. In the positive control group coated with only distilled water after atopy induction using DNCB, there were observed a thick cornified layer and inflammation and damage on skin.

C=Cc1c(C)c2cc3nc(c4c5[n-]c(cc6nc(cc1[n-]2)C(C)=C6CC)c(C)c5C(=O)[C@@H]4C(=O)OC)[C@@H](CCC(=O)OC/C=C(\C)CCC[C@H](C)CCC[C@H](C)CCCC(C)C)[C@@H]3C.[Mg+2] [chlorophyll a]
body weight, group mean ([1]; 1 mg/kg oral daily, day 9, mean of 5 mice): 27 g
body weight, group mean ([1]; 1 mg/kg oral daily, day 11 (time of sacrifice), mean of 5 mice, 1 mg/kg): 28.36 ± 1.045 g and 28.36 g
body weight ([1]; 1 mg/kg oral daily, day 11, individual mouse, 1 mg/kg): 29 g and 28.9 g and 27.5 g and 27 g and 29.4 g
body weight ([1]; 5 mg/kg oral daily, day 1, individual mouse, 5 mg/kg): 24.9 g and 28.6 g and 27.5 g (2×) and 27.1 g
body weight, group mean ([1]; 5 mg/kg oral daily, day 1, mean of 5 mice): 27.12 g
body weight ([1]; 5 mg/kg oral daily, day 3, individual mouse, 5 mg/kg): 24.8 g and 29.6 g and 27.1 g and 29 g and 27.4 g
body weight, group mean ([1]; 5 mg/kg oral daily, day 3, mean of 5 mice): 27.58 g
body weight ([1]; 5 mg/kg oral daily, day 5, individual mouse, 5 mg/kg): 25.9 g and 30.8 g and 26.7 g and 29.3 g and 28 g
body weight, group mean ([1]; 5 mg/kg oral daily, day 5, mean of 5 mice): 28.14 g
body weight ([1]; 5 mg/kg oral daily, day 7, individual mouse, 5 mg/kg): 25.9 g and 30.6 g and 27.2 g and 30.2 g and 28.2 g
body weight, group mean ([1]; 5 mg/kg oral daily, day 7, mean of 5 mice): 28.42 g
body weight ([1]; 5 mg/kg oral daily, day 9, individual mouse, 5 mg/kg): 25.3 g and 30.6 g and 27.2 g and 29 g and 27 g
body weight, group mean ([1]; 5 mg/kg oral daily, day 9, mean of 5 mice): 27.82 g
body weight, group mean ([1]; 5 mg/kg oral daily, day 11 (time of sacrifice), mean of 5 mice, 5 mg/kg): 28.86 ± 2.033 g and 28.86 g
body weight ([1]; 5 mg/kg oral daily, day 11, individual mouse, 5 mg/kg): 25.7 g and 31.3 g and 29.2 g and 29.5 g and 28.6 g
change in body weight by the administration ([1]; oral administration, in words): no decrease
degranulation count of the mast cells ([2]; 1 mg/kg oral daily, in words): not significantly improved
No. of Mast Cells per value of degranulation level 1 ([2]; 1 mg/kg oral daily, 1 mg/kg): 2.87 and 1.44 and 1.91 and 1.75 and 2.57
No. of Mast Cells per value of degranulation level 1, mean ([2]; 1 mg/kg oral daily, 1 mg/kg): 2.11±0.59 and 2.11
No. of Mast Cells per value of degranulation level 1 ([2]; 5 mg/kg oral daily, 5 mg/kg): 0.75 and 2.31 and 2.76 and 2.57 and 4.31
No. of Mast Cells per value of degranulation level 1, mean ([2]; 5 mg/kg oral daily, 5 mg/kg): 2.54±1.27 and 2.54
No. of Mast Cells per value of degranulation level 0 ([2]; 1 mg/kg oral daily, 1 mg/kg): 4.12 and 5.55 and 2.82 and 5.89 and 4.83
No. of Mast Cells per value of degranulation level 0, mean ([2]; 1 mg/kg oral daily, 1 mg/kg): 4.64±1.22 and 4.64
No. of Mast Cells per value of degranulation level 0 ([2]; 5 mg/kg oral daily, 5 mg/kg): 5.98 and 6.31 and 4.51 and 7.41 and 3.81
No. of Mast Cells per value of degranulation level 0, mean ([2]; 5 mg/kg oral daily): 5.60
No. of Mast Cells per value of degranulation level 0, mean ([2]; 5 mg/kg oral daily, 5 mg/kg): 5.60±1.44
No. of Mast Cells per value of degranulation level 2 ([2]; 1 mg/kg oral daily, 1 mg/kg): 1.56 and 0.62 and 0.66 and 1.25 and 2.38
No. of Mast Cells per value of degranulation level 2, mean ([2]; 1 mg/kg oral daily, 1 mg/kg): 1.30±0.73 and 1.30
No. of Mast Cells per value of degranulation level 2 ([2]; 5 mg/kg oral daily, 5 mg/kg): 0.44 and 1.44 and 5.45 and 1.82 and 3.00
No. of Mast Cells per value of degranulation level 2, mean ([2]; 5 mg/kg oral daily, 5 mg/kg): 2.43±1.92 and 2.43
Average No. of Mast Cells × 200 (mast cells; 1 mg/kg oral daily): 9.3 and 7.6 and 5.4 and 8.9 and 10.4
Average No. of Mast Cells × 200, Group Mean (mast cells; 1 mg/kg oral daily): 8.32±1.195 and 8.32 ± 1.915 and 8.32
Average No. of Mast Cells × 200 (mast cells; 5 mg/kg oral daily): 7.3 and 10 and 12.7 and 11.8 and 11.1
Average No. of Mast Cells × 200, Group Mean (mast cells; 5 mg/kg oral daily): 10.8±2.083 and 10.58 ± 2.083 and 10.58
tissue damage of dorsal skin ([3]; 1 mg/kg oral daily): significant decreases
tissue damage of dorsal skin ([3]; 5 mg/kg oral daily): significant decreases
